Converted amounts (≈) assume the structure as drawn. Bounds are passed on as bounds.

Type in all cases: functional
The subject of assay [1] is Mycolicibacterium smegmatis. As to the kind of experiment: Antibacterial activity against Mycobacterium smegmatis after 48 hrs by MTT based microdilution assay. A general note: Tetrazolium dyes change colour on reduction, which living cells bring about.
The subject of a further assay is Escherichia coli. Nature of the assay: Antibacterial activity against Escherichia coli after 24 hrs by MTT based microdilution assay.
The next assay relates to Staphylococcus aureus. As to the kind of experiment: Antibacterial activity against Staphylococcus aureus after 24 hrs by MTT based microdilution assay.
A further assay concerns Rhodococcus fascians. Nature of the assay: Antibacterial activity against Rhodococcus fascians after 24 hrs by MTT based microdilution assay. As to conditions: Rhodococcoides fascians.
For a further assay, the system named is Pseudomonas aeruginosa. As to the kind of experiment: Antibacterial activity against Pseudomonas aeruginosa after 24 hrs by MTT based microdilution assay.

As to `COc1ccc(C2COc3cc(O)cc(O)c3C2=O)c(O)c1O` (racemic), the MIC (in assay [1]; with Escherichia coli; against Staphylococcus aureus; in the assay on Rhodococcus fascians; against Pseudomonas aeruginosa) was more than 50 µg/mL each time.
For `COc1ccc(C2COc3c(C/C=C(/C)CCC=C(C)C)c(O)cc(O)c3C2=O)c(O)c1O` (racemic), the MIC – broadly, the least concentration at which growth counts as inhibited – was 5 µg/mL (≈ 11 µM) in assay [1]; more than 50 µg/mL against Escherichia coli; 5 µg/mL (≈ 11 µM) against Staphylococcus aureus; 12.5 µg/mL (≈ 27.5 µM) in the assay with Rhodococcus fascians; more than 50 µg/mL in the assay on Pseudomonas aeruginosa.
With `CC1(C)S[C@@H]2[C@H](NC(=O)[C@H](N)c3ccccc3)C(=O)N2[C@H]1C(=O)O` [AMPICILLIN], the minimum inhibitory concentration (MIC) in assay [1] was more than 50 µg/mL; in the assay with Escherichia coli, less than 5 µg/mL; in the assay on Staphylococcus aureus, more than 50 µg/mL; against Rhodococcus fascians, 20 µg/mL (≈ 57.2 µM); in the assay with Pseudomonas aeruginosa it was less than 5 µg/mL.
In the case of `COc1ccc(C2COc3c(C/C=C(\C)CCC=C(C)C)c(O)cc(O)c3C2=O)c(O)c1O` (racemic), the MIC in assay [1] was 5 µg/mL (≈ 11 µM); against Escherichia coli it was more than 50 µg/mL; in the assay with Staphylococcus aureus, 5 µg/mL (≈ 11 µM); in the assay on Rhodococcus fascians, 12.5 µg/mL (≈ 27.5 µM); against Pseudomonas aeruginosa, more than 50 µg/mL.
As to `CN[C@@H]1[C@@H](O[C@H]2O[C@H](CO)[C@@H](N)[C@H](O)[C@H]2O)O[C@H]2C[C@@H](N)[C@@H](O[C@H]3[C@H](O)[C@@H](O)[C@H](N)C[C@@H]3N)O[C@@H]2[C@@H]1O`, the MIC was 2.5 µg/mL (≈ 4.63 µM) in assay [1]; more than 50 µg/mL in the assay on Escherichia coli; 30 µg/mL (≈ 55.6 µM) against Staphylococcus aureus; 50 µg/mL (≈ 92.7 µM) in the assay on Rhodococcus fascians; 50 µg/mL (≈ 92.7 µM) in the assay on Pseudomonas aeruginosa.
